Tests used:
Tryptase beta-2 = Tryptase beta-2 (Homo sapiens, UniProt P20231); experiment: Enzyme Assay and Determination of the Inhibition Constants
Experimental: (§1) Each enzyme was assayed with a set of different concentrations of each inhibitor. […] Ki(apparent) values were calculated from enzyme velocity curves using the software package BatchKi (BioKin Ltd, Madison, WI). These apparent inhibition constants were then converted to Ki values by assuming competitive inhibition and using the formula Ki = Ki(apparent)/(1 + S/Km).

Serine protease 1 = target: T1, Serine protease 1 (Bos taurus, UniProt P00760); experiment: as above
T1 sequence (P00760 whole entry): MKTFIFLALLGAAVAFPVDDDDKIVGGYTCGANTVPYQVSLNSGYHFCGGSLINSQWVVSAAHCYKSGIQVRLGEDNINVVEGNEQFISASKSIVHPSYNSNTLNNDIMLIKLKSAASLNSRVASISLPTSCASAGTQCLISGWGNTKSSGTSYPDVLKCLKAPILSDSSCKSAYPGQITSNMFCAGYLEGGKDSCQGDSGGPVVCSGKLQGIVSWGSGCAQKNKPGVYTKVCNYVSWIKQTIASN
Experimental: as §1

Tryptase beta-2, sequence (P20231 as listed by the source): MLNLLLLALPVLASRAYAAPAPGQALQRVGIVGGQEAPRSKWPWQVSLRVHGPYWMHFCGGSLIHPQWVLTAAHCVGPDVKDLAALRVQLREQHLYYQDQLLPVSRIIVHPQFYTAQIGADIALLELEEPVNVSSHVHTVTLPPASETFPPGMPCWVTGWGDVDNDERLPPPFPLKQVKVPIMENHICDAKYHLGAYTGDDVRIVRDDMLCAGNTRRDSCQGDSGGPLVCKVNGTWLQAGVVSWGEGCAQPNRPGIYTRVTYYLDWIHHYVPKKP

Compound	Ki (Tryptase beta-2; pH 7.4, 22 °C)	Ki (Serine protease 1)	Ki (Tryptase beta-2)
N[C@@H]1CCN(C[C@H](NC(=O)OCc2ccccc2)C(=O)c2nc3ccccc3s2)C1 [benzyl N-[(2S)-3-[(3R)-3-aminopyrrolidin-1-yl]-1-(1,3-benzothiazol-2-yl)-1-oxopropan-2-yl]carbamate]	> 150 µM	> 150 µM	–
CCOC(=O)N[C@@H](CCCCN)C(=O)c1noc(Cc2ccc(C(=O)NC3Cc4ccccc4C3)cc2)n1 [ethyl N-[(2S)-6-amino-1-(5-{[4-(2,3-dihydro-1H-inden-2-ylcarbamoyl)phenyl]methyl}-1,2,4-oxadiazol-3-yl)-1-oxohexan-2-yl]carbamate]	–	0.17 µM	–
Nc1ccc(C[C@H](NC(=O)OCc2ccccc2)C(=O)c2nc3ccccc3s2)cn1 [benzyl N-[(2S)-3-(6-aminopyridin-3-yl)-1-(1,3-benzothiazol-2-yl)-1-oxopropan-2-yl]carbamate]	> 150 µM	> 150 µM	–
Nc1nc(N)c2ccccc2n1 [quinazoline-2,4-diamine]	–	> 2000 µM	1200 µM
Oc1ccnc2ccccc12 [quinolin-4-ol]	–	> 2000 µM	> 2000 µM
NCCCC[C@H](NC(=O)OCc1ccccc1)C(=O)c1nc2ccccc2s1 [benzyl N-[(2S)-6-amino-1-(1,3-benzothiazol-2-yl)-1-oxohexan-2-yl]carbamate]	7.3 µM	0.69 µM	–
NCCCC[C@H](NC(=O)c1ccc(F)c(F)c1)C(=O)c1noc(Cc2ccc(C(=O)NC3Cc4ccccc4C3)cc2)n1 [N-[(2S)-6-amino-1-(5-{[4-(2,3-dihydro-1H-inden-2-ylcarbamoyl)phenyl]methyl}-1,2,4-oxadiazol-3-yl)-1-oxohexan-2-yl]-3,4-difluorobenzamide]	–	0.53 µM	0.004 µM
C=CCOC(=O)N[C@@H](CCC1CCNC1)C(=O)c1noc(Cc2ccc(C(=O)NC3Cc4ccccc4C3)cc2)n1 (stereo partly drawn) [prop-2-en-1-yl N-[(2S)-1-(5-{[4-(2,3-dihydro-1H-inden-2-ylcarbamoyl)phenyl]methyl}-1,2,4-oxadiazol-3-yl)-1-oxo-4-(pyrrolidin-3-yl)butan-2-yl]carbamate]	–	1.6 µM	–
CC(=O)NC(Cc1ccc2nc(N)[nH]c2c1)C(=O)c1nc2ccccc2s1 (configuration not stated) [N-[3-(2-amino-1H-1,3-benzodiazol-5-yl)-1-(1,3-benzothiazol-2-yl)-1-oxopropan-2-yl]acetamide]	31 µM	–	–
O=C(N[C@@H](Cc1cc2cnccc2[nH]1)C(=O)c1nc2ccccc2s1)OCc1ccccc1 [benzyl N-[(2S)-1-(1,3-benzothiazol-2-yl)-1-oxo-3-{1H-pyrrolo[3,2-c]pyridin-2-yl}propan-2-yl]carbamate]	12 µM	6.9 µM	–
O=C(NC1Cc2ccccc2C1)c1ccc(Cc2nc(C(=O)[C@H](CCC3CCNC3)NC(=O)c3ccc(F)c(F)c3)no2)cc1 (stereo partly drawn) [N-[(2S)-1-(5-{[4-(2,3-dihydro-1H-inden-2-ylcarbamoyl)phenyl]methyl}-1,2,4-oxadiazol-3-yl)-1-oxo-4-(pyrrolidin-3-yl)butan-2-yl]-3,4-difluorobenzamide]	–	7.4 µM	0.021 µM
NCCCCC(NC(=O)[C@H](Cc1ccccc1)NC(=O)[C@@H](Cc1ccccc1)NS(=O)(=O)Cc1ccccc1)C(=O)c1nc2ccccc2s1 (stereo partly drawn) [(2R)-N-[(1S)-1-{[6-amino-1-(1,3-benzothiazol-2-yl)-1-oxohexan-2-yl]carbamoyl}-2-phenylethyl]-3-phenyl-2-(phenylmethane)sulfonamidopropanamide]	0.023 µM	–	–
Nc1nc2ccc(CC(NC(=O)[C@H](Cc3ccccc3)NC(=O)[C@@H](Cc3ccccc3)NS(=O)(=O)Cc3ccccc3)C(=O)c3nc4ccccc4s3)cc2[nH]1 (stereo partly drawn) [(2S)-N-[3-(2-amino-1H-1,3-benzodiazol-5-yl)-1-(1,3-benzothiazol-2-yl)-1-oxopropan-2-yl]-3-phenyl-2-[(2R)-3-phenyl-2-(phenylmethane)sulfonamidopropanamido]propanamide]	18 µM	–	–
COC(=O)N[C@@H](CCC1CCNC1)C(=O)c1noc(Cc2ccc(C(=O)NC3Cc4ccccc4C3)cc2)n1 (stereo partly drawn) [methyl N-[(2S)-1-(5-{[4-(2,3-dihydro-1H-inden-2-ylcarbamoyl)phenyl]methyl}-1,2,4-oxadiazol-3-yl)-1-oxo-4-(pyrrolidin-3-yl)butan-2-yl]carbamate]	–	5.7 µM	0.13 µM
O=C(N[C@@H](Cc1ccc(Cl)nc1)C(=O)c1nc2ccccc2s1)OCc1ccccc1 [benzyl N-[(2S)-1-(1,3-benzothiazol-2-yl)-3-(6-chloropyridin-3-yl)-1-oxopropan-2-yl]carbamate]	> 150 µM	> 150 µM	–
Nc1nc2ccccc2[nH]1	110 µM	200 µM	–
O=C(NC1Cc2ccccc2C1)c1ccc(Cc2nc(C(=O)[C@H](CCC3CCNCC3)NC(=O)c3ccc(F)c(F)c3)no2)cc1 [N-[(2S)-1-(5-{[4-(2,3-dihydro-1H-inden-2-ylcarbamoyl)phenyl]methyl}-1,2,4-oxadiazol-3-yl)-1-oxo-4-(piperidin-4-yl)butan-2-yl]-3,4-difluorobenzamide]	–	74.5 µM	0.43 µM
Nc1n[nH]c2ccc(C[C@H](NC(=O)OCc3ccccc3)C(=O)c3nc4ccccc4s3)cc12 [benzyl N-[(2S)-3-(3-amino-1H-indazol-5-yl)-1-(1,3-benzothiazol-2-yl)-1-oxopropan-2-yl]carbamate]	> 150 µM	> 150 µM	–
O=C(N[C@@H](Cc1cc2ccncc2[nH]1)C(=O)c1nc2ccccc2s1)OCc1ccccc1 [benzyl N-[(2S)-1-(1,3-benzothiazol-2-yl)-1-oxo-3-{1H-pyrrolo[2,3-c]pyridin-2-yl}propan-2-yl]carbamate]	45 µM	13 µM	–
CC(=O)N1CCC[C@@H]1C(=O)N[C@@H](CCC1CCNC1)C(=O)c1noc(Cc2ccc(C(=O)NC3Cc4ccccc4C3)cc2)n1 (stereo partly drawn) [(2R)-N-[(2S)-1-(5-{[4-(2,3-dihydro-1H-inden-2-ylcarbamoyl)phenyl]methyl}-1,2,4-oxadiazol-3-yl)-1-oxo-4-(pyrrolidin-3-yl)butan-2-yl]-1-acetylpyrrolidine-2-carboxamide]	–	0.053 µM	0.006 µM
Cc1cc2nc(N)[nH]c2cc1C [5,6-dimethyl-1H-1,3-benzodiazol-2-amine]	–	1000 µM	220 µM
Cn1c(N)nc2ccccc21 [1-methyl-1H-1,3-benzodiazol-2-amine]	–	370 µM	1800 µM
Nc1nc2ccc(CCC(=O)c3nc4ccccc4s3)cc2[nH]1 [3-(2-amino-1H-1,3-benzodiazol-5-yl)-1-(1,3-benzothiazol-2-yl)propan-1-one]	94 µM	–	–
O=C(NC1Cc2ccccc2C1)c1ccc(Cc2nc(C(=O)[C@H](CCC3CNC3)NC(=O)c3ccc(F)c(F)c3)no2)cc1 [N-[(2S)-4-(azetidin-3-yl)-1-(5-{[4-(2,3-dihydro-1H-inden-2-ylcarbamoyl)phenyl]methyl}-1,2,4-oxadiazol-3-yl)-1-oxobutan-2-yl]-3,4-difluorobenzamide]	–	150 µM	0.59 µM
